How the values were obtained:
Test in all cases: relative viability (nuclei count vs DMSO), 5 days (fraction); higher = more cells survive
[1] = compound: N=C1NC(=O)/C(=C/c2ccc(O)cc2)S1 [Mirin] + CC(=O)Nc1cccc(-n2c(=O)n(C3CC3)c(=O)c3c(Nc4ccc(I)cc4F)n(C)c(=O)c(C)c32)c1 [Trametinib] (partner 0.02 µM)
How it was run: (§1)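 The day after seeding in 1536-well plates, lung cancer cell lines were treated by pin tool with a single drug, or with a fixed anchor-drug dose together with five library-drug doses (not always all listed) in √10 steps. After 5 days, a combined fix-and-stain solution (final 0.05% Triton X-100, 1% formaldehyde, 1 ug/ml Hoechst) was added. Nuclei counted on 4× images gave relative viability as treated counts over vehicle counts, reported as the median of duplicate plates.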

[2] = compound: CCC1=CN=CN=C1N2CCN(CC2)CC3=NC4=C(N3)C=C(C=C4)C(F)(F)F + CCNC(=O)c1noc(-c2cc(C(C)C)c(O)cc2O)c1-c1ccc(CN2CCOCC2)cc1 [Luminespib] (partner 0.01 µM)
How it was run: as §1

[3] = compound: CCC1=CN=CN=C1N2CCN(CC2)CC3=NC4=C(N3)C=C(C=C4)C(F)(F)F + CS(=O)(=O)N1CCN(Cc2cc3nc(-c4cccc5[nH]ncc45)nc(N4CCOCC4)c3s2)CC1 [Pictilisib] (partner 1 µM)
How it was run: as §1

[4] = compound: CCC1=CN=CN=C1N2CCN(CC2)CC3=NC4=C(N3)C=C(C=C4)C(F)(F)F + CC(C)C[C@H](NC(=O)[C@H](Cc1ccccc1)NC(=O)c1cnccn1)B(O)O [Bortezomib] (partner 0.002 µM)
How it was run: as §1

Cell Line	relative viability ([1]; first compound 0.25 µM)	relative viability ([1]; first compound 0.7906 µM)	relative viability ([1]; first compound 2.5 µM)	relative viability ([1]; first compound 7.906 µM)	relative viability ([1]; first compound 25 µM)	relative viability ([2]; first compound 0.04 µM)	relative viability ([2]; first compound 0.1265 µM)	relative viability ([2]; first compound 0.4 µM)	relative viability ([2]; first compound 1.265 µM)	relative viability ([2]; first compound 4 µM)	relative viability ([3]; first compound 0.04 µM)	relative viability ([3]; first compound 0.1265 µM)	relative viability ([3]; first compound 0.4 µM)	relative viability ([3]; first compound 1.265 µM)	relative viability ([3]; first compound 4 µM)	relative viability ([4]; first compound 0.04 µM)	relative viability ([4]; first compound 0.1265 µM)	relative viability ([4]; first compound 0.4 µM)	relative viability ([4]; first compound 1.265 µM)	relative viability ([4]; first compound 4 µM)
NCI-H2085	0.514	0.465	0.519	0.511	0.59	0.442	0.481	0.421	0.387	0.356	0.468	0.426	0.412	0.296	0.429	0.927	0.949	1.13	1.03	1.04
NCI-H520	0.542	0.571	0.659	0.603	0.477	0.243	0.256	0.264		0.199	0.326	0.28	0.238	0.255	0.279	0.699	0.48	0.642	0.534	0.472
Calu-6											1.07	0.877	0.865	0.822	0.73	0.969	0.924	0.871	0.884	0.829
SK-LU-1	0.519	0.519	0.568	0.383	0.538	0.205	0.203	0.213	0.178	0.213	0.573	0.494	0.469		0.486	1.09	1.03	1.16		1.13
LCLC-103H	0.744	0.799	0.735	0.735	0.833	0.948	0.98	0.999	0.886	0.721	0.599	0.614	0.499	0.435	0.559	1.04	0.959	1.07	1.07	1.18
HCC-15	0.341	0.368	0.363	0.368	0.365	0.308	0.299	0.27	0.299	0.406	0.667	0.676	0.677	0.532	0.805	0.931	0.921	0.953	1.08	1.05
H3255	0.604	0.752	0.557	0.412	0.566	0.785	0.853	0.72	0.619	0.859	0.5	0.507	0.446	0.423	0.455	0.671	0.849	0.739	0.816	0.756
NCI-H1563						0.539	0.545	0.529	0.478	0.531	0.643	0.684	0.65	0.616	0.698	0.829	1	0.838	0.656	0.976
NCI-H522	0.682	0.741	0.872	0.768	0.519	1.16	1.24	1.15	0.867	0.987										
NCI-H1299											0.819	0.728	0.972	0.752	0.673	1.06	0.998	1.01	0.983	1.01
LK-2	0.653	0.577	0.609	0.421	0.42	0.204	0.182	0.159	0.195	0.202	0.575	0.462	0.436	0.42	0.56					
HCC-78	0.647	0.715	0.885	0.709	0.72						0.143	0.299	0.203	0.206	0.178	0.538	0.592	0.59	0.528	0.517
NCI-H358	0.123	0.146	0.163	0.11	0.13	0.288	0.263	0.339		0.194	0.4	0.282	0.349	0.289	0.359					
SK-MES-1	0.505	0.569	0.571	0.585	0.716	0.779	0.951	0.718	0.735	0.793	0.431	0.354	0.346	0.282	0.38					
NCI-H1648	0.448		0.41	0.457	0.389															
EBC-1											0.459	0.318	0.333	0.261	0.352	0.557	0.528	0.6	0.458	0.486
NCI-H1395	0.996		1.03	1.01	1	0.624	0.775	0.66	0.651	0.619	0.59	0.553	0.619	0.572	0.646					
IA-LM											0.409	0.33	0.323	0.325	0.3	0.786	0.911	0.761	0.752	0.702
ABC-1						0.636			0.504	0.527	0.587	0.955	0.69	0.665	0.646	0.315	0.314	0.312	0.402	0.37
NCI-H1703											0.238	0.277	0.263	0.232	0.227	0.305	0.26	0.248	0.446	0.307
NCI-H2170	0.981	0.875	0.976	0.915	0.859	0.577	0.6	0.712	0.748	0.823	0.303	0.304	0.274	0.289	0.325					
NCI-H1793	0.497		0.39	0.352	0.607	0.152	0.311	0.171		0.165	0.329	0.304	0.428		0.328					

Source: the supplement of paper PMC10307832
